We go through one compound from paper PMC10406726, “Development, scrutiny, and modulation of transient reporter gene assays of the xenobiotic metabolism pathway in zebrafish hepatocytes” (Cell Biology and Toxicology, 2021).

What all share (assay type): cell-based, zebrafish (Danio rerio)
The subject of series [1] is AhR transcription factor activation (AhR/ARNT/XRE pathway). In words: AhR-responsive transient dual luciferase reporter gene (DLR) assay in ZFL cells. The following applies: for LOEC: TCDD exposure 24 h; for EC20 (normalized): 4PL regression. Here is the method:
(§1) ZFL cells were seeded either into white, clear-bottom 96-well microtiter plates (Corning, New York, USA; for DLR assays) or transparent 96-well microtiter plates (Corning, New York, USA; for viability assays) at a density of 1.5 × 10^5 cells/mL, in 100 μL/well. After 24 h of incubation, cells reached a confluence of about 80%.
(§2) The transient transfection was conducted in a 2-μg transfection reagent to 1 μg plasmid DNA ratio, applying the XHP transfection reagent (Roche, Mannheim, Germany). Specific transfection optimization experiments were reported priory (Lungu-Mitea et al. [2018]). The transient transfection reaction was incubated as a co-transfection in a 10:1 reporter to control ratio (0.9 μg reporter plasmid, 0.1 μg control plasmid) for 30 min, before adding the reaction mixture to the cells. Firefly luciferase-bearing vectors were used as the primary reporter plasmids, and Renilla luciferase-bearing vectors were used for normalization (control plasmid). Ten microliter per well of the transfection reaction mix was added to the cells and incubated for 24 h. Following (Lungu-Mitea and Lundqvist [2020]), cells used in both DLR and viability assays were transiently transfected.
(§3) Prepared aliquots of stock solutions were thawed and further titrated using the nutrition medium supplemented with 5‰ (v/v) DMSO as a solvent. […] Different exposure regimes were applied. […] All potential co-transfection combinations were screened in this initial approach. […] Further, cells transfected with candidate plasmid combinations were subjected to a TCDD exposure regime from 100 pM to 100 nM (0.1, 0.3, 1, 3, 10, 30, 100 nM). Cells were exposed in 100 μL/well of the specifically spiked nutrition medium. Solvent controls (negative controls) were conducted in six replicates for every specific experiment.
(§4) After 24 h of exposure to AhR-agonists, cells on white 96-well microtiter plates were lysed in 20-μL passive lysis buffer (PLB; Promega, Madison, USA), and quantitative AhR-dependent luminescence was measured via Dual-Luciferase® Reporter Assay (DLR; Promega, Madison, USA), according to the manufacturer’s protocol using an auto-injecting Infinite M1000 microplate reader (Tecan, Männedorf, Switzerland), following a flash luminescence protocol. The luciferase activity was normalized to transfection efficiency (Firefly raw light unit readout divided by Renilla raw light unit readout) and further expressed as fold change compared to the non-treated controls.
(§5) In terms of the NOEC/LOEC analyses, for both approaches (DLR and viability), mean background values (blanks) were subtracted from the raw values, and the data was computed as fold induction in relation to the negative controls. Means of every experiment were pooled (experimental unit n = 3–5; observational unit N = 9–15). Normality was tested by Shapiro–Wilk and Kolmogorov–Smirnov tests (both significance level alpha = 0.05) and analyzed graphically via normal-qq-plot. Non-normal data were log-transformed and re-analyzed. Given normality, statistically differing significance in the output signal from the negative controls was assessed via one-way ANOVA, followed by Dunnett’s post hoc test (for multiple comparisons vs. control). Residuals were graphically analyzed by quantile–quantile plot (actual vs. predicted residuals), homoscedasticity plot (absolute residuals vs. fitted), and residual plot (residuals vs. fitted) to ensure ANOVA criteria were met. Further, Brown–Forsythe and Bartlett’s tests were conducted to check for the residuals’ homoscedasticity and normality. Beyond statistical significance, for all viability tests, a threshold of 80% as compared to the negative control (corresponding 0.8) was determined as biologically significant and marked with a dotted red line within all respective graphs. […]
A general note: In a reporter assay the amount or activity of a reporter protein is the signal.

Series [2] deals with AhR (AhR/ARNT/XRE pathway). The description is as above. As to conditions: zebrafish, TCDD exposure, 4PL regression. As for the experimental part: as §1, §2, §3, §4, §5
In a further series the test system is ZFL cells. In words: MTS/BCA-multiplex viability assay on transiently transfected ZFL cells. The following applies: TCDD 0.1-100 nM; pGudluc7.5 + pRL-null[zfEF1aPro] (Fig. S7). Here is the method: In parallel to the DLR assays, MTS/BCA-multiplex assays were conducted on identically treated cells. The MTS/BCA-multiplex assay, which is described in detail in (Lungu-Mitea et al. [2021]), scores NADPH-turnover and total protein amount as apical endpoints of cell viability or cytotoxicity. After 24 h exposure, the spiked nutrition medium was discharged, cells were washed once in 100 µL/well PBS, and 100 µL/well Earle’s Balanced Salt Solution (EBSS; Gibco, Paisley, UK) was added. MTS-based CellTiter 96® AQueous One Solution Cell Proliferation Assay (Promega, Madison, USA) was conducted following the manufacturer’s protocol. Seventeen percent (v/v) MTS reagent were added to the wells. After 2 h of incubation at 28 °C and atmospherical CO2, formazan product turnover absorbance was measured at 490 nm using an Infinite M1000 microplate reader. Afterwards, EBSS and MTS reagents were removed. Cells were washed once in 100 µL/well PBS and lysed in 20-µL PLB at RT for 30 min. Bicinchoninic Acid Protein Assay (BCA, Sigma-Aldrich, St. Louis, USA) was conducted following the manufacturer’s protocol. One hundred eighty microliters of BCA-reagent was added to every well, plates were agitated shortly, and incubated for 20 min at 60 °C. After cooling down for 15 min at RT, absorbance was measured at 562 nm using an Infinite M1000 microplate reader.
In terms of the NOEC/LOEC analyses, for both approaches (DLR and viability), mean background values (blanks) were subtracted from the raw values, and the data was computed as fold induction in relation to the negative controls. Means of every experiment were pooled (experimental unit n = 3–5; observational unit N = 9–15). Normality was tested by Shapiro–Wilk and Kolmogorov–Smirnov tests (both significance level alpha = 0.05) and analyzed graphically via normal-qq-plot. Non-normal data were log-transformed and re-analyzed. Given normality, statistically differing significance in the output signal from the negative controls was assessed via one-way ANOVA, followed by Dunnett’s post hoc test (for multiple comparisons vs. control). Residuals were graphically analyzed by quantile–quantile plot (actual vs. predicted residuals), homoscedasticity plot (absolute residuals vs. fitted), and residual plot (residuals vs. fitted) to ensure ANOVA criteria were met. Further, Brown–Forsythe and Bartlett’s tests were conducted to check for the residuals’ homoscedasticity and normality. Beyond statistical significance, for all viability tests, a threshold of 80% as compared to the negative control (corresponding 0.8) was determined as biologically significant and marked with a dotted red line within all respective graphs.

Like-named read-outs stand apart in the source and are kept apart here.

As for `Clc1cc2c(cc1Cl)Oc1cc(Cl)c(Cl)cc1O2` [TCDD, 2,3,7,8-tetrachlorodibenzo-p-dioxin], the LOEC in series [1] (setup (d) pGL4.43 + pRL-null[zfEF1aPro]) worked out at 0.1 nM; in series [1] (setup (e) pGudLuc7.5 + pRL-null), 1 nM; in series [1] (setup (f) pGudLuc7.5 + pGL4.70) it was 1 nM. Also, in series [1] (TCDD exposure, all recorded within this range), the “EC20, all co-transfection setups” value is reported as about 200 pM. Besides, the “plateau of relative induction” value in series [1] (TCDD exposure, pGudluc7.5 + pRL-null[zfEF1aPro] (Fig. 5A)) was “approximately 26 fold”. Besides, the “EC20 (normalized)” value in series [1] (TCDD exposure, setup (d) pGL4.43 + pRL-null[zfEF1aPro]) is 282 pM; in series [1] (TCDD exposure, setup (e) pGudLuc7.5 + pRL-null) it was 245 pM; in series [1] (TCDD exposure, setup (f) pGudLuc7.5 + pGL4.70), 204 pM. Besides, the EC50 (in general, the concentration at which the effect is half-maximal) at 24 h came to 612 pM in series [2] (setup (a) pGL4.43 + pGL4.70, read-out: EC50 (normalized)); 595 pM in series [2] (setup (a) pGL4.43 + pGL4.70, read-out: EC50 (relative; non-normalized)); 2700 pM in series [2] (setup (b) pGL4.43 + pRL-null, read-out: EC50 (normalized)); 1310 pM in series [2] (setup (b) pGL4.43 + pRL-null, read-out: EC50 (relative; non-normalized)); 1150 pM in series [2] (setup (c) pGudLuc7.5 + pRL-null[zfEF1aPro], read-out: EC50 (normalized)); 1130 pM in series [2] (setup (c) pGudLuc7.5 + pRL-null[zfEF1aPro], read-out: EC50 (relative; non-normalized)). The EC50 at 24 h in series [2] (setup (d) pGL4.43 + pRL-null[zfEF1aPro], read-out: EC50 (normalized)) was 1450 pM; in series [2] (setup (d) pGL4.43 + pRL-null[zfEF1aPro], read-out: EC50 (relative; non-normalized)), 877 pM; in series [2] (setup (e) pGudLuc7.5 + pRL-null, read-out: EC50 (normalized)) it was 661 pM; in series [2] (setup (e) pGudLuc7.5 + pRL-null, read-out: EC50 (relative; non-normalized)), 685 pM; in series [2] (setup (f) pGudLuc7.5 + pGL4.70, read-out: EC50 (normalized)) it was 1260 pM; in series [2] (setup (f) pGudLuc7.5 + pGL4.70, read-out: EC50 (relative; non-normalized)), 1070 pM. Besides, the “cytotoxicity (MTS)” value in the series on ZFL cells is “none”.
